Results on nine molecules are retold here after US9040527B2, “Pyrimidinediamine kinase inhibitors” (Rigel Pharmaceuticals, Inc., priority 2008, dated 2015).

A word on the IC50: it is the point on the concentration scale where inhibition reaches its midpoint.

Molecules are shown by their SMILES. A value given as a limit tells only on which side of the number the result lay.

Assay [1] has as its target T1, PLK1 (Homo sapiens, UniProt P53350). Put plainly: Cellular PLK1 assay in K562 cells overexpressing CDC25C. The assay is classed as cell-based. The note with it: nocodazole arrested, cdc25c p-Ser198 readout. Also on record: endogenous in cells; host or cells: K562 (human chronic myelogenous leukemia) overexpressing CDC25C, nocodazole-arrested. Put shortly: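 K562 cells overexpressing CDC25C were arrested with 333 nM nocodazole for 18 h at 37 °C, then exposed to compound at 8 points from 10 μM to 0.005 μM in duplicate for 120 min. After fixation and permeabilization, cells were stained for cdc25c pSer198 with a PE secondary and read by flow cytometry, 10,000 cells per well.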

Assay [2] has as its target T1, PLK1. Put plainly: In vitro PLK1 ELISA assay (biochemical). The arrangement: purchased Cell Signalling 7728. The gist of the method: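 Commercial PLK1 phosphorylates neutravidin-captured biotinylated CHK2 peptide for 45 min at room temperature in HEPES pH 7.2 with Mg2+/Mn2+/DTT, compounds at 10 μM to 0.005 μM. Phospho-CHK2(T68) antibody plus HRP secondary gives chemiluminescent read-out used for IC50.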
For orientation: ELISA stands for enzyme-linked immunosorbent assay.

The mark [3] stands for this setting: ELISA, CHK2-derived peptide substrate, read-out: PLK1 IC50 (μM) biochemical assay.
Where [4] appears, read: read-out: IC50 in biochemical in vitro PLK1 ELISA assay (less than 10 μM).
[5] abbreviates: read-out: IC50 in biochemical ELISA assay (less than 0.01 μM).

T1 sequence (P53350 whole entry): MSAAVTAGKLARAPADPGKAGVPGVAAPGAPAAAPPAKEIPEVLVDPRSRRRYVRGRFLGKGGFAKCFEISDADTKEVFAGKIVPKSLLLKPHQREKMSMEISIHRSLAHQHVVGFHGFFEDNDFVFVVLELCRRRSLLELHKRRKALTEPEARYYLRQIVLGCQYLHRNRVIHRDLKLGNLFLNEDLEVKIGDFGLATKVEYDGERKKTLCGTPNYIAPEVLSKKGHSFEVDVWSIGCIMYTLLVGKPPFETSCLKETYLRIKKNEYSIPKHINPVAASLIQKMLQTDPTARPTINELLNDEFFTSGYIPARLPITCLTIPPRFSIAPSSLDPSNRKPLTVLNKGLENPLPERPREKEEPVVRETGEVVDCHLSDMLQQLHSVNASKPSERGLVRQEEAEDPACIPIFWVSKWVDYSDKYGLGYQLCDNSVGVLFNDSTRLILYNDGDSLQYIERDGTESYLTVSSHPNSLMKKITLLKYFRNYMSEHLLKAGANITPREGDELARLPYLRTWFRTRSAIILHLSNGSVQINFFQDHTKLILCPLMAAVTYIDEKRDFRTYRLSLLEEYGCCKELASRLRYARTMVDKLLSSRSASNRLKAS

As to `CC(C)c1cc(Nc2ncc(F)c(Nc3ccc4c(n3)NCCO4)n2)cc(N2CCN(C)CC2)c1` [compound 46, N4-(3,4-dihydro-2H-pyrido[3,2-b][1,4]oxazin-6-yl)-5-fluoro-N2-(3-isopropyl-5-(4-methylpiperazin-1-yl)phenyl)pyrimidine-2,4-diamine], the results for the IC50 at PLK1 [1], on PLK1 [2] (setting [3]) and at PLK1 [2] (setting [4]) were 0.5 to 5 µM, under 0.5 µM and under 10 µM, respectively.

Take `CN1CCN(c2cc(Nc3ncc(F)c(Nc4ccc5c(n4)NC(=O)CO5)n3)cc(OC(C)(C)C)c2)CC1` [compound 47, 6-(2-(3-tert-butoxy-5-(4-methylpiperazin-1-yl)phenylamino)-5-fluoro-pyrimidin-4-ylamino)-2H-pyrido[3,2-b][1,4]oxazin-3(4H)-one]: the figures for the IC50 against PLK1 [1], on PLK1 [2] (setting [3]) and on PLK1 [2] (setting [4]) were under 0.5 µM, under 0.5 µM and under 10 µM, respectively.

Regarding `CN1CCN(c2cc(Nc3ncc(F)c(Nc4ccc5c(n4)NCCO5)n3)cc(C3CC3)c2)CC1` [compound 48, N2-(3-cyclopropyl-5-(4-methylpiperazin-1-yl)phenyl)-N4-(3,4-dihydro-2H-pyrido[3,2-b][1,4]oxazin-6-yl)-5-fluoropyrimidine-2,4-diamine], the 50% inhibitory concentration (IC50) against PLK1 [1] is under 0.5 µM; at PLK1 [2] (setting [3]), under 0.5 µM; on PLK1 [2] (setting [5]), under 0.01 µM; at PLK1 [2] (setting [4]), under 10 µM.

For `CCOc1ccc(N2CCN(C)CC2)cc1Nc1ncc(F)c(Nc2ccc3c(n2)NC(=O)CO3)n1` [compound 49, 6-(2-(2-ethoxy-5-(4-methylpiperazin-1-yl)phenylamino)-5-fluoro-pyrimidin-4-ylamino)-2H-pyrido[3,2-b][1,4]oxazin-3(4H)-one], the half-inhibitory concentration (IC50) was under 0.5 µM against PLK1 [1], under 0.5 µM on PLK1 [2] (setting [3]), under 0.01 µM on PLK1 [2] (setting [5]) and under 10 µM on PLK1 [2] (setting [4]).

For the molecule `CN1CCN(c2cc(Nc3ncc(F)c(Nc4ccc5c(n4)NC(=O)CO5)n3)cc(C3CC3)c2)CC1` [compound 50, 6-(2-(3-cyclopropyl-5-(4-methylpiperazin-1-yl)phenylamino)-5-fluoro-pyrimidin-4-ylamino)-2H-pyrido[3,2-b][1,4]oxazin-3(4H)-one], the IC50 was under 0.5 µM against PLK1 [1], under 0.5 µM at PLK1 [2] (setting [3]), under 0.01 µM at PLK1 [2] (setting [5]) and under 10 µM at PLK1 [2] (setting [4]).

As for `Cc1cnc(Nc2cccc(N3CCN(C)CC3)c2)nc1Nc1ccc2c(n1)NC(=O)CO2` [compound 51, 6-(5-methyl-2-(3-(4-methylpiperazin-1-yl)phenylamino)pyrimidin-4-ylamino)-2H-pyrido[3,2-b][1,4]oxazin-3(4H)-one], the half-maximal inhibitory concentration (IC50) against PLK1 [1] was 0.5 to 5 µM; on PLK1 [2] (setting [3]), under 0.5 µM; at PLK1 [2] (setting [5]), under 0.01 µM; on PLK1 [2] (setting [4]) it was under 10 µM.

As for `COc1cnc(Nc2cccc(N3CCN(C)CC3)c2)nc1Nc1ccc2c(n1)NCCO2` [compound 52, N4-(3,4-dihydro-2H-pyrido[3,2-b][1,4]oxazin-6-yl)-5-methoxy-N2-(3-(4-methylpiperazin-1-yl)phenyl)pyrimidine-2,4-diamine], the half-inhibitory concentration (IC50) against PLK1 [1] is 0.5 to 5 µM; on PLK1 [2] (setting [3]), under 0.5 µM; at PLK1 [2] (setting [4]), under 10 µM.

Regarding `CN1CCN(c2cccc(Nc3ncc(F)c(N(CC4CC4)c4ccc5c(n4)NCCO5)n3)c2)CC1` [compound 53, N4-(cyclopropylmethyl)-N4-(3,4-dihydro-2H-pyrido[3,2-b][1,4]oxazin-6-yl)-5-fluoro-N2-(3-(4-methylpiperazin-1-yl)phenyl)pyrimidine-2,4-diamine], the IC50 against PLK1 [1] is at least 10 µM; on PLK1 [2] (setting [3]), 0.5 to 5 µM; on PLK1 [2] (setting [4]) it was under 10 µM.

As to `CN1CCN(c2cccc(Nc3ncc(F)c(N(c4ccc5c(n4)NCCO5)C4CCCC4)n3)c2)CC1` [compound 54, N4-cyclopentyl-N4-(3,4-dihydro-2H-pyrido[3,2-b][1,4]oxazin-6-yl)-5-fluoro-N2-(3-(4-methylpiperazin-1-yl)phenyl)pyrimidine-2,4-diamine], the values for the half-inhibitory concentration (IC50) against PLK1 [1], on PLK1 [2] (setting [3]) and on PLK1 [2] (setting [4]) were at least 10 µM, 5 to 10 µM and under 10 µM, respectively.
